Values after ≈ are worked out from the molar mass of the structure shown. Like-named read-outs stand apart in the source and are kept apart here.
Assays:
[1] = in vitro; settings: human, A549 cells
Experimental: The cell lines A549 (Human Lung Adenocarcinoma Epithelial Cell Line) and HepG2 (Human Hepatocellular Carcinoma Cell Line) were purchased from ATCC. A549 cells were maintained in F-12K medium (Gibco) containing 10% foetal bovine serum (Life Technologies) and 1% penicillin/streptomycin (Life Technologies) and HepG2 cells were maintained in Dulbecco's modified eagles medium (Gibco) containing 10% foetal bovine serum (Life Technologies), penicillin/streptomycin (Life Technologies) and 1% 0.01 mg/ml human transferrin (Sigma). Both were incubated at 37° C. with 5% CO2 until cells reached >80% confluence before splitting or experimental use.
Before exposure to peptides, the plate was incubated at 37° C. with 5% CO2 overnight to allow cells adhere. […] Medium was removed from the plate containing cells and peptide dilutions were transferred to cells and incubated for a further 3 h at 37° C. with 5% CO2. Cytotoxicity was determined by LIVE/DEAD® Viability/Cytotoxicity kit (Invitrogen Life Technologies), a working solution of 2 μM calcein AM and 4 μM EthD-1 and in conjunction Alamar Blue at a final concentration of 10% was added to the wells. Cells without peptides were the negative control and 1% DMSO was the positive control. Cells were incubated for 3 h again at 37° C. with 5% CO2.

[2] = tested on: C. albicans SC5314; assay type: cell-based
Experimental: 1×RPMI-1640 Buffered with Citrate Phosphate Buffer
Citrate phosphate buffer was prepared by mixing 0.1 M citric acid and 0.2 M dibasic sodium phosphate dodecahydrate in the proportions indicated in the Table 2 and the volume adjusted to 90 ml with dH2O.
pH buffered medium was prepared by dissolving 1.04 g RPMI-1640 premix powder in 10 ml citrate phosphate buffer. The volume was then adjusted to 40 ml with dH2O and the pH adjusted by addition of the acid or base. The volume was adjusted to 50 ml with dH2O. The medium was then filter sterilized by vacuum filtration through a 0.2 μm filter and stored at 4° C. and kept for up to 2 weeks.
The pH of RPMI-1640 was altered, using citrate phosphate buffer, to reflect the more acidic pH environment in the oral cavity. NP319 and NP377 were active against C. albicans SC5314 from pH 5.5-7.0 (Table 2). For all AMPs tested the optimum pH for activity was pH 5.5. NP377 maintained activity at 2 μg/ml from pH 5.5-7 with reduced activity at pH 5.

[3] = tested on: C. albicans SC5314; experiment: MIC in the presence of 10% sterile filtered human saliva; assay type: cell-based
Experimental: AMPs of the same sequence length were tested versus C. albicans SC5314 in the presence of 10% (v/v) filtered human saliva at pH 7.0. Positive control is 1×RPMI-1640+cells, no peptide. Data is expressed as percentage of the positive growth controls. Data is the mean±standard error of the mean. (n=3)
Determination of Minimum Inhibitory Concentration (MIC) in Presence of Sterile Filtered Saliva
To test if saliva protease could result in a reduction in AMP antifungal activity against C. albicans, antifungal susceptibility testing was conducted in the presence of 10% (v/v) sterile filtered human saliva.

[4] = tested on: human red blood cells (hRBC); experiment: Haemolysis of human red blood cells; settings: at 2500 μg/ml, 3 h
Experimental: Peptides were tested for their haemolytic activity against human red blood cells (hRBC). Fresh hRBCs collected in BD Vacutainer® tubes with EDTA were rinsed 3 times with PBS (pH 7.4) by centrifugation for 10 min at 800 g and resuspended, 1 in 10 diluted with PBS. […] Release of haemoglobin was then calculated by transferring supernatant to a flat bottomed 96-well plate and measuring absorbance at 578 nm. hRBCs with no peptides added and H2O provided the controls.

SMILES	CC50 at 3 h [1] [µg/mL]	concentration at which activity was maintained ([2]; from pH 5.5-7) [µg/mL]	MIC50 ([2]; pH 4.5) [µg/mL]	MIC100 ([2]; pH 4.5) [µg/mL]	MIC50 ([2]; pH 5) [µg/mL]	MIC100 ([2]; pH 5) [µg/mL]	MIC50 ([2]; pH 5.5) [µg/mL]	MIC100 ([2]; pH 5.5) [µg/mL]	MIC50 ([2]; pH 6) [µg/mL]	MIC100 ([2]; pH 6) [µg/mL]	MIC50 ([2]; pH 6.5) [µg/mL]	MIC100 ([2]; pH 6.5) [µg/mL]	MIC50 ([2]; pH 7) [µg/mL]	MIC100 ([2]; pH 7) [µg/mL]	MIC100 ([3]; 10% (v/v) sterile filtered human saliva, pH 7.0) [µg/mL]	antifungal activity in the presence of filtered human saliva ([3]; filtered human saliva)	Haemolysis RBCs % at 2500 [4] [%]
CCCCCCCCCCCCCCCC(=O)N[C@@H](CCCNC(=N)N)C(=O)N[C@@H](CCCNC(=N)N)C(=O)N[C@@H](CCCNC(=N)N)C(=O)N[C@@H](CCCNC(=N)N)C(=O)N[C@@H](CCCNC(=N)N)C(=O)N[C@@H](CCCNC(=N)N)C(=O)N[C@@H](CCCNC(=N)N)C(=O)N[C@@H](CCCNC(=N)N)C(=O)N[C@@H](CCCNC(=N)N)C(=O)N[C@@H](CCCNC(=N)N)C(=O)N[C@@H](CCCNC(=N)N)C(=O)N[C@@H](CCCNC(=N)N)C(=O)O [C16-(Rx12)]	30 (≈ 14.1 µM)																
N=C(N)NCCC[C@@H](N)C(=O)N[C@H](CCCNC(=N)N)C(=O)N[C@H](CCCNC(=N)N)C(=O)N[C@H](CCCNC(=N)N)C(=O)N[C@H](CCCNC(=N)N)C(=O)N[C@H](CCCNC(=N)N)C(=O)N[C@H](CCCNC(=N)N)C(=O)N[C@H](CCCNC(=N)N)C(=O)N[C@H](CCCNC(=N)N)C(=O)N[C@H](CCCNC(=N)N)C(=O)N[C@H](CCCNC(=N)N)C(=O)N[C@H](CCCNC(=N)N)C(=O)N[C@H](CCCNC(=N)N)C(=O)N[C@H](Cc1c[nH]cn1)C(=O)N[C@H](Cc1c[nH]cn1)C(N)=O [NP377, dRdRdRdRdRdRdRdRdRdRdRdRdRdHdH-CONH]		2	32 (≈ 13.8 µM)	>64	4 (≈ 1.72 µM)	8 (≈ 3.45 µM)	1 (≈ 0.431 µM)	2 (≈ 0.861 µM)	2 (≈ 0.861 µM)	2 (≈ 0.861 µM)	2 (≈ 0.861 µM)	2 (≈ 0.861 µM)	2 (≈ 0.861 µM)	4 (≈ 1.72 µM)	2	retain antifungal activity	
N=C(N)NCCC[C@H](NC(=O)[C@H](CCCNC(=N)N)NC(=O)[C@H](CCCNC(=N)N)NC(=O)[C@H](CCCNC(=N)N)NC(=O)[C@H](CCCNC(=N)N)NC(=O)[C@H](CCCNC(=N)N)NC(=O)[C@H](CCCNC(=N)N)NC(=O)[C@H](CCCNC(=N)N)NC(=O)[C@H](CCCNC(=N)N)NC(=O)[C@H](CCCNC(=N)N)NC(=O)[C@H](CCCNC(=N)N)NC(=O)[C@H](CCCNC(=N)N)NC(=O)[C@H](CCCNC(=N)N)NC(=O)[C@@H](N)CCCNC(=N)N)C(=O)O [Rx14]	> 2500																0

— patent US20170107254A1, “Modified Antimicrobial Peptides” (priority 2014, published 2017)
